Measured values reported in patent US12324813B2, “Method and pharmaceutical composition for rescuing retinal degeneration” (Taipei Veterans General Hospital, priority 2023, dated 2025).
Entries after “also recorded” stand apart in the source; their conditions may differ.

Legend:
[1] = test system: ARPE-19 cells; test: Immunoblotting analysis of treated ARPE-19 cells; type: cell-based
Method: Cells were treated with the autophagy inhibitor Bafilomycin A1 (Sigma, Saint Louis, MO, USA) at 75 nM or DUSP6 inhibitor BCI (Sigma, Saint Louis, MO, USA) at 1.25 μM or 2.5 μM for 6 h at 37° C. Proteins were collected after treatment for further study. C57BL/6N mice were sacrificed and their eyes were collected. The excess muscle tissue outside the sclera was removed and then a needle was used to make a hole in the cornea then remove the whole cornea. Next, we eliminated the lens and retina, and finally lysed the remaining tissue RIPA buffer (10× Merck Millipore, Temecula, CA, USA) containing with 1% protease inhibitor. Meanwhile, in vitro ARPE-19 cells were collected and lysed with RIPA buffer containing with 1% protease inhibitor. Subsequently, cell lysates were centrifuged for 10 min at 4° C. and the supernatants were collected. Next, the protein concentrations were measured via the BCA Protein Quantification Kit. An equal weight of total protein was separated by electrophoresis on SDS/PAGE. After the proteins were transferred onto polyvinylidene difluoride (PVDF) membranes (Millipore, Bedford, MA, USA), the membranes were incubated with blocking buffer (1×TBST and 5% skim milk) for 1 h at room temperature. After the blocking step, the membranes were incubated with the following primary antibodies at 4° C. overnight: DUSP6 (Abcam, Cambridge, UK), Phospho-ERK1/2 (Cell Signaling, Danvers, MA, USA), ERK1/2 (Cell Signaling, Danvers, MA, USA), LC3B (Novus, Centennial, CO, USA), SQSTM1/p62 (Abcam, Cambridge, UK), LAMP2 (Abcam, Cambridge, UK), Beclin-1 (Cell Signaling, Danvers, MA, USA), and Bactin (Sigma, Saint Louis, MO, USA). Next, membranes were washed three times with TBST and incubated with HRP-conjugated secondary antibodies including Goat anti-mouse IgG (Invitrogen, Carlsbad, CA, USA) and Goat anti-rabbit IgG (Invitrogen, Carlsbad, CA, USA) for 1 h at RT. The antigen-antibody complexes were detected by an enhanced chemiluminescence (ECL) substrate kit (Bioman, Millipore, Bedford, MA, USA). Bands were analyzed and quantified by the ImageJ (NIH, Bethesda, MD, USA) analysis software.

[2] = test system: ARPE-19 cells; test: Immunocytochemistry / immunofluorescence staining of ARPE-19 cells; type: cell-based
Method: In vitro, the cells were seeded in 24-well plates at a density of 2×10^5 per well and incubated at 37° C. with 5% CO2 for 24 h. […] After rinsing three times with PBS, the cells were permeabilized and blocked with a blocking solution (0.3% BSA and 0.1% Triton X-100 in PBS) at room temperature for 1 h. After blocking, cells were incubated with primary antibodies overnight at 4° C. The primary antibodies include DUSP6 (Abcam, Cambridge, UK), Phospho-ERK1/2 (Cell Signaling, Danvers, MA, USA), LC3B (Novus, Centennial, CO, USA), and SQSTM1/p62 (Abcam, Cambridge, UK). After incubation, cells were washed three times with PBST (0.1% Triton X-100 in PBS). Secondary antibodies (1:700) were applied for 3 h at room temperature. The secondary antibodies include IgG Alexa 488 goat anti-rabbit IgG and Alexa 594 goat anti-mouse IgG. Nuclei were stained with DAPI (1:1000) for 10 min at 4° C. and slides were observed by a light microscope (Olympus America, Melville, NY, USA). In vivo, the sample slices were pretreated with bleaching solution (1% NaH2PO4 and 2.5% H2O2) overnight at room temperature. Next, the primary antibodies, including DUSP6, Phospho-ERK1/2, LC3B, SQSTM1/p62, and RPE65, were incubated with the sample slices overnight at 4° C. After incubation, the samples were washed three times with PBST. Tests with secondary antibodies (1:700) were conducted for 1 h at room temperature. The secondary antibodies included IgG Alexa 488 goat anti-rabbit IgG and Alexa 594 goat anti-mouse IgG. After treating them with mounting solution, the slides were observed by a fluorescence microscope (Olympus America, Melville, NY, USA).

[3] = test system: ARPE-19 cells; test: qRT-PCR of p62 mRNA in ARPE-19 cells; type: cell-based; conditions: ARPE-19 co-treated with BCI and NaIO3 for 6 hours
Method: The cDNA was diluted to 200 ng/μL with sterile water and mixed with SYBR PCR Master Mix and primers. Amplification reaction was performed in a thermal cycler according to the manufacturer's instructions. mRNA abundance was quantified using the threshold cycle method. The mRNA expression of GAPDH was used as an internal control for normalization.

[4] = test system: ARPE-19 cells; test: Live imaging of GFP-LC3-RFP-LC3AG reporter in ARPE-19 cells; type: cell-based; conditions: ARPE-19, BCI under NaIO3-induced oxidative stress
Description: Furthermore, to estimate the autophagic flux in BCI-treated ARPE-19 cells, we introduced the GFP-LC3-RFP-LC3AG gene into ARPE-19 cells and monitored live images taken after BCI treatment.

[5] = test system: C57BL/6N mice; test: DUSP6 inhibitor (BCI) treatment in NaIO3-treated mice; type: in vivo
Description: Retina samples were fixed with 4% paraformaldehyde (Sigma, Saint Louis, MO, USA) overnight, followed by 1×PBS. The methodology used for fixation, dehydration, clearing, infiltration, and embedding was developed according to that of Bio-Check Laboratories. […] The morphology of the retina was observed using a light microscope (Olympus America, Melville, NY, USA). Next, the thicknesses of the retina, defined as the distance between the inner limiting membrane, Bruch's membrane, and the outer nuclear layer (ONL), were measured by Image J (NIH, Bethesda, Maryland, USA). In vitro, the cells were seeded in 24-well plates at a density of 2×10^5 per well and incubated at 37° C. with 5% CO2 for 24 h. […] After rinsing three times with PBS, the cells were permeabilized and blocked with a blocking solution (0.3% BSA and 0.1% Triton X-100 in PBS) at room temperature for 1 h. After blocking, cells were incubated with primary antibodies overnight at 4° C. The primary antibodies include DUSP6 (Abcam, Cambridge, UK), Phospho-ERK1/2 (Cell Signaling, Danvers, MA, USA), LC3B (Novus, Centennial, CO, USA), and SQSTM1/p62 (Abcam, Cambridge, UK). After incubation, cells were washed three times with PBST (0.1% Triton X-100 in PBS). Secondary antibodies (1:700) were applied for 3 h at room temperature. The secondary antibodies include IgG Alexa 488 goat anti-rabbit IgG and Alexa 594 goat anti-mouse IgG. Nuclei were stained with DAPI (1:1000) for 10 min at 4° C. and slides were observed by a light microscope (Olympus America, Melville, NY, USA). In vivo, the sample slices were pretreated with bleaching solution (1% NaH2PO4 and 2.5% H2O2) overnight at room temperature. Next, the primary antibodies, including DUSP6, Phospho-ERK1/2, LC3B, SQSTM1/p62, and RPE65, were incubated with the sample slices overnight at 4° C. After incubation, the samples were washed three times with PBST. Tests with secondary antibodies (1:700) were conducted for 1 h at room temperature. The secondary antibodies included IgG Alexa 488 goat anti-rabbit IgG and Alexa 594 goat anti-mouse IgG. After treating them with mounting solution, the slides were observed by a fluorescence microscope (Olympus America, Melville, NY, USA). […] The structure of the retina was analyzed by real-time images and H & E staining. Proteins were collected from retina for further study.

[6] = NaIO3-treated ARPE-19 cells with Baf-A1 75 nM
[7] = NaIO3 30 mg/kg i.p. then BCI 0.5 mg/kg intravitreal

| SMILES | LC3B-II expression [1, 6] | p62 expression levels [1, 6] | p-ERK/ERK ratio (ERK activity) ([1]; NaIO3-treated ARPE-19, BCI 1.25 and 2.5 μM, 6 h) | autophagic markers (immunoblotting) ([1]; NaIO3-treated ARPE-19, BCI 1.25 and 2.5 μM, hydrochloride) | autophagosomes (fluorescence images) ([2]; ARPE-19, BCI 1.25 μM, oxidative conditions) | speckles of p-ERK ([2]; ARPE-19, BCI with or without NaIO3) | perinuclear p62 punctate ([2]; ARPE-19 co-treated with NaIO3 and BCI) | cell-cell junction (tight junction marker ZO-1) ([2]; RPE cells, NaIO3 vs control, BCI co-treatment) | p62 mRNA level [3] | GFP / RFP LC3 signal (late-stage autophagy) [4] | ONL disorganization (H & E) ([5]; BCI 0.5 mg/kg intravitreal in presence of NaIO3-induced oxidative stress) | ONL thickness ([5]; BCI group vs NaIO3 group) | melanin deposition on the retina ([5]; BCI group vs mice treated with NaIO3 only) | co-localization of LC3B and p62 between the ONL and RPE layers [5, 7] | phosphorylated ERK speckles around the ONL and RPE layers [5, 7] | accumulation of p62 in mouse retinas ([5]; mouse retinas treated with BCI) |
| --- | --- | --- | --- | --- | --- | --- | --- | --- | --- | --- | --- | --- | --- | --- | --- | --- |
| CO/C1=C\C(C)=C\[C@@H](C)[C@@H](O)[C@@H](C)C/C(C)=C/C=C/[C@H](OC)[C@@H]([C@@H](C)[C@@H](O)[C@H](C)[C@@]2(O)C[C@@H](O)[C@H](C)[C@@H](C(C)C)O2)OC1=O [Baf-A1, Bafilomycin A1] | increase in LC3B-II expression in a dose-dependent manner | remained unchanged | – | – | – | – | – | – | – | – | – | – | – | – | – | – |
| Cl.O=C1/C(=C/c2ccccc2)C(NC2CCCCC2)c2ccccc21 (mixture of isomers) [BCI, (E/Z)-BCI hydrochloride] | – | – | significantly increased in NaIO3-treated cells after BCI treatment in a dose-dependent manner | upregulation of autophagic markers upon BCI treatment in a dose-dependent manner; also recorded: also upregulated | aggregation of autophagosomes | increased after BCI treatment, despite the presence or absence of NaIO3 | significantly upregulated | rescue the cell-cell junction | upregulated | GFP-positive signal being shifted to an RFP-positive signal | alleviated | restored the ONL thickness | significantly reduced | excessive co-localization | dramatically enhanced | significantly decreased |
